According to PMC11802822, “Comprehensive safety and toxicity analysis of 2,2’-Bipyridine derivatives in combating MRSA biofilm formation and persistence” (Frontiers in Cellular and Infection Microbiology, 2025):
In brackets after ≈: the same amount, converted by molar mass. Several values for one entry are separate records, joined by “and”; a condition that tells them apart may be missing. Identical values can stand only once.

How the values were obtained:
[1] = system: MTCC 737; experiment: Biofilm imaging by confocal laser scanning microscopy (SYTO 9/PI); settings: derivatives 100 µg/ml, 24 h
Text: Using SYTO 9 and PI dyes. […] Two independent experiments were done in triplicate.

[2] = system: MTCC 737; experiment: Biofilm inhibition assay (crystal violet); settings: S. aureus; at MIC or higher concentrations
Procedure: After incubation, cells were washed with 1X PBS, and stained with 100 µl of Crystal Violet dye for 15 min, and rinsed again with 1X PBS.

[3] = system: MRSA 831 persister cells; experiment: Persister killing assay; type: cell-based, methicillin-resistant S. aureus; settings: MRSA persisters; 4-fold MIC
Procedure: To evaluate the persister-killing activity of 2,2’-Bipy derivatives, MTCC 737 and MRSA 831 cells were grown overnight to the stationary phase at 37°C ([Kim et al., 2018b]). […]. The bacterial densities of persisters were recorded at OD600 at hourly intervals from 0 to 6 h.

[4] = system: S. aureus (MTCC737); experiment: Agar well diffusion
[5] = system: M. luteus (MTCC 106); experiment: Agar well diffusion
[6] = system: K. pneumoniae (MTCC 618); experiment: Broth microdilution MIC
[7] = system: MTCC 737; experiment: Transmission electron microscopy; settings: S. aureus MTCC 737; 100 µg/ml, 12 h
[8] = system: MRSA 831; experiment: Broth microdilution MIC; settings: 18 h
[9] = system: E. coli (MTCC739); experiment: Broth microdilution MIC
[10] = system: MRSA 831; experiment: Transmission electron microscopy; settings: 100 µg/ml, 12 h
[11] = system: B. subtilis (MTCC 441); experiment: Agar well diffusion
[12] = system: S. aureus (MTCC737); experiment: Broth microdilution MIC
[13] = Cytotoxicity (MTT assay); type: cell-based, murine; settings: mouse
Procedure: (§1) The murine fibroblast 3T3 L-1 cell line was procured from the National Centre for Cell Science (NCCS), Pune, India. The 3T3 L-1 cells were incubated at 37°C in an incubator maintained at 95% humidity and 5% CO2 in DMEM medium complemented with 10% fetal bovine serum (FBS) and 1% penicillin-streptomycin.
(§2) Synthesized derivatives were evaluated for cytotoxicity in a 3T3-L1 cell line using the MTT assay ([Ernawati et al., 2022]). 8000 cells/well were added in 96-well tissue culture flat-bottom microtiter plates for 24 h and then incubated with synthesized molecules (0-400 µg/ml) for 48 h at 37°C in a CO2 incubator. DMSO was used as solvent at a concentration of 0.1% to ensure that any observed effects were not attributable to the solvent itself, whereas 1 µg/ml doxorubicin was used in toxicity tests as a positive control. Subsequently, the media was replaced with MTT solution (100 µl) diluted in fresh media (0.5 mg/ml), and incubated for 4 h. After incubation, 100 µl of stop solution (50% DMF with 20% SDS) was added to dissolve the formazan crystals, and the plates were further incubated for 1 h. Absorbance was measured at 570 nm using BioTEK Synergy multi-plate reader ([Mosmann, 1983]; [Pratelli et al., 2023]). Percent cell viability was calculated using the following formula:
(§3) Cell viability (%)=Absorbance (Untreated - blank) - Absorbance (Test sample- blank)/Absorbance (Untreated - blank)×100

[14] = system: P. aeruginosa (MTCC1934); experiment: Broth microdilution MIC
[15] = system: E. coli (MTCC739); experiment: Agar well diffusion
[16] = system: P. aeruginosa (MTCC1934); experiment: Agar well diffusion
[17] = system: V. cholerae (MTCC 3906); experiment: Agar well diffusion; type: cell-based, Vibrio cholerae
[18] = system: MRSA 831 (MRSA); experiment: Agar well diffusion; settings: MRSA 831, 50 µg/ml, ND = Not detected
[19] = system: V. cholerae (MTCC 3906); experiment: Broth microdilution MIC; type: cell-based, Vibrio cholerae
[20] = system: K. pneumoniae (MTCC 618); experiment: Agar well diffusion; settings: 50 µg/ml, ND = Not detected
[21] = system: 3T3-L1 cell line; experiment: Cytotoxicity (MTT assay); type: cell-based, murine
Procedure: as §1, §2, §3

[22] = system: MRSA; design: method as in Lee et al., 2017; settings: ref Lee et al., 2017; cited from earlier work
[23] = system: MRSA 831; experiment: PI uptake assay; type: cell-based, methicillin-resistant S. aureus; settings: derivatives 100 µg/ml, Polymyxin B 10 μM, 1 h
Procedure: (§4) MTCC 737 and MRSA 831 were grown, washed, and resuspended in 5 mM HEPES (pH 7.2), with the OD600 normalized to 0.5. […] Polymyxin B (10 μM), a membrane destabilizer, was used as a reference control. Drug-free and vehicle controls (cells treated with 0.5% DMSO) were included to analyze changes in fluorescence. After 1 h of treatment, cultures were centrifuged and stained with 5 µM PI dye for 15 min. Following staining, the cultures were washed twice to remove the extra dye, and fluorescence was recorded at 485 nm excitation and 525 nm emission wavelengths ([Zhou et al., 2020]).

[24] = system: MTCC 737; experiment: PI uptake assay; type: cell-based, Staphylococcus aureus; settings: derivatives 100 µg/ml, Polymyxin B 10 μM, 1 h
Procedure: as §4

COc1ccccc1C(=NO)c1cc(C)cc(-c2cc(C)ccn2)n1 [NPS4, N-[(4,4’-dimethyl[2,2’-bipyridin]-6-yl)(2-methoxyphenyl)methylidene] hydroxylamine]
Biofilm disruption (CLSM) [1]: significant disruption and damage
Biofilm formation inhibition (in words) [2]: highly effective
Effect on persister cell counts [3]: significantly reduced
zone of inhibition at 50 µg/mL ([4]; Staphylococcus aureus, MTCC737): 19 mm
zone of inhibition at 50 µg/mL ([5]; Micrococcus luteus, MTCC106): 19.3 ± 0.58 mm
MIC ([6]; Klebsiella pneumoniae, MTCC618, 18 h, read-out: Minimum inhibitory concentration): > 100 µg/mL
Cell morphology (TEM) [7]: Significant morphological alterations
MIC ([8]; Staphylococcus aureus, MRSA, read-out: Minimum inhibitory concentration): 50 µg/mL (≈ 150 µM)
MIC ([9]; Escherichia coli, MTCC739, 18 h, read-out: Minimum inhibitory concentration): > 100 µg/mL
Cell morphology (TEM) [10]: Significant morphological alterations
zone of inhibition at 50 µg/mL ([11]; Bacillus subtilis, MTCC441): 10 ± 1 mm
MIC ([12]; Staphylococcus aureus, MTCC737, 18 h, read-out: Minimum inhibitory concentration): 50 µg/mL (≈ 150 µM)
IC50 at 24 h [13]: 279 µg/mL
IC50 at 48 h [13]: 240 µg/mL
MIC ([14]; Pseudomonas aeruginosa, MTCC1934, 18 h, read-out: Minimum inhibitory concentration): > 100 µg/mL
zone of inhibition at 50 µg/mL ([15]; Escherichia coli, MTCC739): 9 ± 1 mm
zone of inhibition at 50 µg/mL ([16]; Pseudomonas aeruginosa, MTCC1934): 18 ± 1 mm
zone of inhibition at 50 µg/mL ([17]; Vibrio cholerae, MTCC3906): 17.7 ± 3.21 mm
Zone of inhibition [18]: 14.33 ± 0.58 mm
zone of inhibition at 50 µg/mL ([18]; Staphylococcus aureus, MRSA): 14 mm
MIC ([19]; Vibrio cholerae, MTCC3906, 18 h, read-out: Minimum inhibitory concentration): 12.5 µg/mL (≈ 37.5 µM)

CCC(=NO)c1cc(OC)cc(-c2cc(OC)ccn2)n1 [NPS5, N-[1-(4,4’-dimethoxy[2,2’-bipyridin]-6-yl)propyldiene]hydroxylamine]
Zone of inhibition ([4]; S. aureus (MTCC737), 50 µg/ml, ND = Not detected): 10.00 ± 1.73 mm
Zone of inhibition ([5]; M. luteus (MTCC 106), 50 µg/ml, ND = Not detected): 7.33 ± 2.89 mm
Minimum inhibitory concentration ([6]; K. pneumoniae (MTCC 618), 18 h): > 100 µg/mL
Minimum inhibitory concentration ([8]; MRSA 831): 50 µg/mL (≈ 174 µM)
Minimum inhibitory concentration ([9]; E. coli (MTCC739), 18 h): > 100 µg/mL
Zone of inhibition ([11]; B. subtilis (MTCC 441), 50 µg/ml, ND = Not detected): 4.00 ± 0.00 mm
Minimum inhibitory concentration ([12]; S. aureus (MTCC737), 18 h): 50 µg/mL (≈ 174 µM)
Zone of inhibition [20]: 13.00 ± 1.00 mm
Minimum inhibitory concentration ([14]; P. aeruginosa (MTCC1934), 18 h): > 100 µg/mL
Zone of inhibition ([15]; E. coli (MTCC739), 50 µg/ml, ND = Not detected): 9.00 ± 1.00 mm
Zone of inhibition ([16]; P. aeruginosa (MTCC1934), 50 µg/ml, ND = Not detected): 18.00 ± 1.00 mm
Zone of inhibition ([17]; V. cholerae (MTCC 3906), 50 µg/ml, ND = Not detected): 17.67 ± 3.21 mm
Zone of inhibition [18]: 14 mm and 14.33 ± 0.58 mm
Minimum inhibitory concentration ([19]; V. cholerae (MTCC 3906), 18 h): 50 µg/mL (≈ 174 µM)

CCC(=NO)c1cc(OC)cc(-c2cc(OC)ccn2)n1 [NPS6, N-[1-(4,4’-dimethoxy[2,2’-bipyridin]-6-yl)propyldiene]hydroxylamine]
IC50 (cytotoxicity, MTT) [21]: 168.1 µg/mL

COc1cc(-c2ccccn2)nc(CO)c1SC [collismycin C]
MRSA biofilm formation [22]: inhibited MRSA biofilm formation

Polymyxin B [reference compound]
PI fluorescence (membrane integrity) [23]: higher fluorescence
PI fluorescence (membrane integrity) [24]: higher fluorescence
